Measured values taken from patent publication US20240317721A1, “PYRAZOLYL DERIVATIVES AS INHIBITORS OF THE KRAS MUTANT PROTEIN” (NOVARTIS AG, priority 2021, published 2024).

Molecular target: KRasG12C (M1-K169, biotinylated on the N-terminus) (Homo sapiens (Human), UniProt P01116, G12C)
Assay: Covalent competition assay: scintillation proximity assay (SPA) quantifying covalent modification of KRASG12C
Assay type: binding
Conditions: competition with radiolabeled covalent probe (Compound B/Compound A), 2 hours incubation, 10 nM KRasG12C
Method in brief: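 Scintillation proximity readout after streptavidin bead capture (30 min) of biotinylated KRasG12C(M1-K169):GDP, 10 nM final, which was covalently labelled over 2 h by 25 nM radio-probe plus 475 nM cold probe unless blocked by compound.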

| IC50 [nM] | SMILES |
| --- | --- |
| 536 | C=CC(=O)N1CC2(CC(n3nc(N4CC[C@@H](CN5CCOCC5)CC4(C)C)c(-c4c(Cl)c(Cl)cc5[nH]nc(N)c45)c3C)C2)C1 (single isomer, unassigned) [Example 241b] |
| 290 | C=CC(=O)N1CC2(CC(n3nc(N4CC[C@H](CN5CCOCC5)CC4(C)C)c(-c4c(Cl)c(Cl)cc5[nH]ncc45)c3C)C2)C1 (single isomer, unassigned) [Example 214a] |
| 20800 | C=CC(=O)N1CC2(CC(n3nc(N4CCN(c5cnn(C)c5)CC4(C)C)c(-c4c(Cl)c(C)cc5[nH]ncc45)c3C)C2)C1 (single isomer, unassigned) [Example 193a, 1-(6-(4-(5-Chloro-6-methyl-1H-indazol-4-yl)-3-(2,2-dimethyl-4-(1-methyl-1H-pyrazol-4-yl)piperazin-1-yl)-5-methyl-1H-pyrazol-1-yl)-2-azaspiro[3.3]heptan-2-yl)prop-2-en-1-one] |
| > 50000 | C=CC(=O)N1CC2(CCC(n3nc(N4CCN(C(C)=O)CC4)c(-c4c(Cl)ccc5[nH]ncc45)c3C)C2)C1 (single isomer, unassigned) [Example 53b, 1-(6-(3-(4-acetylpiperazin-1-yl)-4-(5-chloro-1H-indazol-4-yl)-5-methyl-1H-pyrazol-1-yl)-2-azaspiro[3.4]octan-2-yl)prop-2-en-1-one] |
| 305 | C=CC(=O)N1CC2(CC(n3nc(N4CCc5ncncc5C4)c(-c4c(Cl)c(C)cc5[nH]ncc45)c3C)C2)C1 (single isomer, unassigned) [Example 15b, 1-(6-(4-(5-chloro-6-methyl-1H-indazol-4-yl)-3-(7,8-dihydropyrido[4,3-d]pyrimidin-6(5H)-yl)-5-methyl-1H-pyrazol-1-yl)-2-azaspiro[3.3]heptan-2-yl)prop-2-en-1-one] |
| 38 | C=CC(=O)N1CC2(CC(n3nc(N4CCN(CCOC)C[C@@]4(C)C(F)F)c(-c4c(Cl)c(C)cc5[nH]ncc45)c3C)C2)C1 (single isomer, unassigned) [Example 179b] |
| 8 | C=CC(=O)N1CC2(CC(n3nc(N4CC[C@@H](CN(CCO)CCOC)CC4(C)C)c(-c4c(Cl)c(Cl)cc5[nH]ncc45)c3C)C2)C1 (single isomer, unassigned) [Example 253b] |
| 42100 | C=CC(=O)N1CC2(CC(n3nc(N4CCC5C(CC(=O)N5C)C4)c(-c4c(Cl)c(C)cc5[nH]ncc45)c3C)C2)C1 (single isomer, unassigned) [Example 39a, 5-(1-(2-acryloyl-2-azaspiro[3.3]heptan-6-yl)-4-(5-chloro-6-methyl-1H-indazol-4-yl)-5-methyl-1H-pyrazol-3-yl)-1-methyloctahydro-2H-pyrrolo[3,2-c]pyridin-2-one] |
| 37 | C=CC(=O)N1CC2(CC(n3nc(N4CCN(C[C@@H]5COCCO5)C[C@]4(C)CC)c(-c4c(Cl)c(C)cc5[nH]ncc45)c3C)C2)C1C (single isomer, unassigned) [Example 199b] |
| > 5000 | C=CC(=O)N1CC2(CC(n3nc(N4CCC(N5C[C@H](OC)[C@H](OC)C5)CC4(C)C)c(-c4c(Cl)c(C)cc5[nH]ncc45)c3C)C2)C1 (single isomer, unassigned) [Example 102a] |
| > 5000 | C=CC(=O)N1CC2(CC(n3nc(N4CCC(CN5C[C@@H]6OCCO[C@@H]6C5)CC4(C)C)c(-c4c(Cl)c(Cl)cc5[nH]ncc45)c3C)C2)C1 (single isomer, unassigned) [Example 232a] |
| 334 | C=CC(=O)N1CC2(CC(n3nc(N4CCN(C[C@@H]5COCCO5)C[C@]4(C)CC)c(-c4c(Cl)c(C)cc5c4cnn5C)c3C)C2)C1 (single isomer, unassigned) [Example 109a] |
| 12 | C=CC(=O)N1CC2(CC(n3nc(N4CCC(N5C[C@H]6C[C@@H]5CN6S(C)(=O)=O)CC4(C)C)c(-c4c(Cl)c(Cl)cc5[nH]ncc45)c3C)C2)C1 (single isomer, unassigned) [Example 212b] |
| 2000 | C=CC(=O)N1CC2(CC(n3nc(N4CC[C@@H](CN5C[C@@H]6CN(C(C)=O)C[C@@H]6C5)CC4(C)C)c(-c4c(Cl)c(Cl)cc5[nH]ncc45)c3C)C2)C1 (single isomer, unassigned) [Example 295a] |
| 1900 | C=CC(=O)N1CC2(CC(n3nc(N4CCC(N(C)C5COC5)CC45CCC5)c(-c4c(Cl)c(C)cc5[nH]nc(N)c45)c3C)C2)C1 (single isomer, unassigned) [Example 116b, 1-(6-(4-(3-amino-5-chloro-6-methyl-1H-indazol-4-yl)-5-methyl-3-(8-(methyl(oxetan-3-yl)amino)-5-azaspiro[3.5]nonan-5-yl)-1H-pyrazol-1-yl)-2-azaspiro[3.3]heptan-2-yl)prop-2-en-1-one] |
| > 5000 | C=CC(=O)N1CC2(CC(n3nc(N4CCN(C5COC5)CC4(C)C)c(-c4c(Cl)c(Cl)cc5[nH]ncc45)c3C)C2)C1 (single isomer, unassigned) [Example 73a, 1-(6-(4-(5,6-dichloro-1H-indazol-4-yl)-3-(2,2-dimethyl-4-(oxetan-3-yl)piperazin-1-yl)-5-methyl-1H-pyrazol-1-yl)-2-azaspiro[3.3]heptan-2-yl)prop-2-en-1-one] |

| IC50 [nM] | SMILES |
| --- | --- |
| 829 | C=CC(=O)N1CC2(CC(n3nc(N4CCC5C(=O)N(C)CC5C4)c(-c4c(Cl)c(C)cc5[nH]ncc45)c3C)C2)C1 (stereo not drawn) [Example 17, (3aS*,7aS*)-5-(1-(2-acryloyl-2-azaspiro[3.3]heptan-6-yl)-4-(5-chloro-6-methyl-1H-indazol-4-yl)-5-methyl-1H-pyrazol-3-yl)-2-methyloctahydro-1H-pyrrolo[3,4-c]pyridin-1-one] |
| 8 | C=CC(=O)N1CC2(CC(n3nc(N4CCN(C[C@@H]5COCCO5)CC45CCC5)c(-c4c(Cl)c(Cl)cc5[nH]ncc45)c3C)C2)C1 (single isomer, unassigned) [Example 171b] |
| 252 | C=CC(=O)N1CC2(CC(n3nc(N4CCN(C5CCOCC5)C[C@]4(C)COC)c(-c4c(Cl)c(Cl)cc5[nH]ncc45)c3C)C2)C1 (single isomer, unassigned) [Example 150a] |
| > 50000 | C=CC(=O)N1CC2(CC(n3nc(N4CCN(C(C)=O)CC4)c(-c4c(C)c(C)cc5[nH]ncc45)c3C)C2)C1 (single isomer, unassigned) [Example 2a, 1-(6-(3-(4-acetylpiperazin-1-yl)-4-(5,6-dimethyl-1H-indazol-4-yl)-5-methyl-1H-pyrazol-1-yl)-2-azaspiro[3.3]heptan-2-yl)prop-2-en-1-one] |
| 1000 | C=CC(=O)N1CC2(CC(n3nc(N4CC[C@H](N(C)C(C)=O)CC4(C)C)c(-c4c(Cl)c(C)cc5[nH]ncc45)c3C)C2)C1 (single isomer, unassigned) [Example 70b] |
| > 5000 | C=CC(=O)N1CC2(CC(n3nc(N4CCN(C[C@@H]5COCCO5)C[C@]4(C)CC)c(-c4c(Cl)cnc5[nH]ncc45)c3C)C2)C1 (single isomer, unassigned) [Example 81a] |
| 36 | C=CC(=O)N1CC2(CC(n3nc(N4CCC(N5CC6COCC(C5)O6)CC4(C)C)c(-c4c(Cl)c(C)cc5[nH]ncc45)c3C)C2)C1 (single isomer, unassigned) [Example 119b, 1-(6-(3-(4-(3,9-dioxa-7-azabicyclo[3.3.1]nonan-7-yl)-2,2-dimethylpiperidin-1-yl)-4-(5-chloro-6-methyl-1H-indazol-4-yl)-5-methyl-1H-pyrazol-1-yl)-2-azaspiro[3.3]heptan-2-yl)prop-2-en-1-one] |
| > 50000 | C=CC(=O)N1CC2(CC(n3nc(N4CCCc5c(cnn5C)C4)c(-c4c(Cl)c(C)cc5[nH]ncc45)c3C)C2)C1 (single isomer, unassigned) [Example 43a, 1-(6-(4-(5-chloro-6-methyl-1H-indazol-4-yl)-5-methyl-3-(1-methyl-4,6,7,8-tetrahydropyrazolo[4,3-c]azepin-5(1H)-yl)-1H-pyrazol-1-yl)-2-azaspiro[3.3]heptan-2-yl)prop-2-en-1-one] |
| 8 | C=CC(=O)N1CC2(CC(n3nc(N4CCN(C[C@@H]5COCCO5)C[C@]4(C)CCOC)c(-c4c(Cl)c(C)cc5[nH]ncc45)c3C)C2)C1 (single isomer, unassigned) [Example 85b] |
| 7 | C=CC(=O)N1CC2(CC(n3nc(N4CC[C@@H](CN5CCN6C(=O)COC[C@@H]6C5)CC4(C)C)c(-c4c(Cl)c(Cl)cc5[nH]ncc45)c3C)C2)C1 (single isomer, unassigned) [Example 275b] |
| 1400 | C=CC(=O)N1CC2(CC(n3nc(N4CCN(C[C@@H]5COCCO5)C[C@]4(C)COC)c(-c4c(Cl)c(Cl)cc5[nH]ncc45)c3C)C2)C1 (single isomer, unassigned) [Example 182a] |
| 766 | C=CC(=O)N1CC2(CC(n3nc(N4CCN(C5CCOCC5)C[C@]4(C)COC)c(-c4c(Cl)c(C)cc5[nH]ncc45)c3C)C2)C1 (single isomer, unassigned) [Example 149a] |
| 76 | C=CC(=O)N1CC2(CC(n3nc(N4CCN(C(C)C)CC45CCC5)c(-c4c(Cl)c(C)cc5[nH]ncc45)c3C)C2)C1 (single isomer, unassigned) [Example 131b, 1-(6-(4-(5-chloro-6-methyl-1H-indazol-4-yl)-3-(8-isopropyl-5,8-diazaspiro[3.5]nonan-5-yl)-5-methyl-1H-pyrazol-1-yl)-2-azaspiro[3.3]heptan-2-yl)prop-2-en-1-one] |
| > 5000 | [2H]C([2H])([2H])c1c(-c2c(Cl)c(Cl)cc3[nH]ncc23)c(N2CC[C@@H](CN3CCOCC3)CC2(C)C)nn1C1CC2(C1)CN(C(=O)C=C)C2 (single isomer, unassigned) [Example 224a] |
| 2500 | C=CC(=O)N1CC2(CC(n3nc(N4CC[C@@H](CN5CCC6COCC65)CC4(C)C)c(-c4c(C)c(Cl)cc5[nH]ncc45)c3C)C2)C1 (single isomer, unassigned) [Example 305a, 1-(6-(4-(6-chloro-5-methyl-1H-indazol-4-yl)-3-((R)-4-(((3aR*,6aR*)-hexahydro-1H-furo[3,4-b]pyrrol-1-yl)methyl)-2,2-dimethylpiperidin-1-yl)-5-methyl-1H-pyrazol-1-yl)-2-azaspiro[3.3]heptan-2-yl)prop-2-en-1-one] |
